# Measurements: PubChem BioAssay (NCI)
# Where “and” joins values, the source holds several entries; their conditions need not be identical. Identical values can stand only once.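 Where inhibition never reached the appropriate level, the endpoint shown equals the highest concentration tested. Otherwise, values were interpolated linearly from a five-concentration, 48-hour dose response in 96-well plates. GI50: concentration for 50% inhibition of growth. TGI denotes the concentration required for complete inhibition of growth.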
# Legend:
# Test in all cases: NCI tumour cell line growth inhibition, 48 h
# NCI-H23 lung = test system: NCI-H23 lung
# T-47D breast = test system: T-47D breast
# DU-145 prostate = test system: DU-145 prostate
# SR leukemia = test system: SR leukemia
# BT-549 breast = test system: BT-549 breast
# OVCAR-4 ovarian = test system: OVCAR-4 ovarian
# SN12C renal = test system: SN12C renal
# HCT-116 colon = test system: HCT-116 colon
# SNB-75 CNS = test system: SNB-75 CNS
# ACHN renal = test system: ACHN renal
Structure (SMILES),TGI (NCI-H23 lung),GI50 (T-47D breast),TGI (T-47D breast),GI50 (DU-145 prostate),TGI (DU-145 prostate),TGI (SR leukemia),GI50 (BT-549 breast),TGI (BT-549 breast),GI50 (OVCAR-4 ovarian),TGI (OVCAR-4 ovarian),GI50 (SN12C renal),TGI (SN12C renal),GI50 (HCT-116 colon),TGI (HCT-116 colon),GI50 (SNB-75 CNS),TGI (SNB-75 CNS),GI50 (ACHN renal),TGI (ACHN renal),GI50 (NCI-H23 lung),GI50 (SR leukemia)
NC(CSC(c1ccccc1)(c1ccccc1)c1ccccc1)C(=O)O (stereo not drawn),7.15 µM and 51.7 µM,3.46 µM,54.9 µM and 53.4 µM,6.02 µM and 4.1 µM,85.5 µM and > 100 µM,19.3 µM and 43.8 µM,4.88 µM,57.8 µM and > 100 µM,11.6 µM and 11.2 µM,61 µM and > 100 µM,2.99 µM and 0.877 µM,23.8 µM and 68.3 µM and > 100 µM,0.512 µM and 0.425 µM,55.3 µM and 64.2 µM and > 100 µM,2.34 µM,9.45 µM and 50.6 µM and 29.2 µM,20.2 µM and 9.65 µM,79.5 µM and > 100 µM,–,–
O=C(Nc1cc(Cl)c(I)c(Cl)c1)C(F)(F)F,70.8 µM,–,97.6 µM,–,> 100 µM,99.5 µM,–,63 µM,–,> 100 µM,–,> 100 µM,–,71.2 µM,–,> 100 µM,–,> 100 µM,–,–
COc1ccc(-c2nc(NC(=O)CS(=O)(=O)c3ccc(F)cc3)sc2C)cc1,> 100 µM,21.7 µM,80.6 µM,34.5 µM,> 100 µM,46.1 µM,15.8 µM,40.3 µM,31 µM,> 100 µM,19 µM,52.5 µM,17.5 µM,38.7 µM,9.45 µM,60.9 µM,30 µM,> 100 µM,27.9 µM,4.32 µM
O=C(CSSCC(=O)c1ccc(Cl)cc1)c1ccc(Cl)cc1,30.3 µM,8.66 µM,45.2 µM,4.77 µM,91.3 µM,> 100 µM,8.92 µM,39.9 µM,18.3 µM,93.9 µM,3.7 µM,36.4 µM,3.79 µM,14.8 µM,6.62 µM,21.4 µM,8.75 µM,24.1 µM,8.22 µM,2.82 µM
CN[C@@H](C)C(=O)N[C@H](C(=O)N1CCC[C@H]1c1nc(C(=O)c2ccc(F)cc2)cs1)C1CCCCC1,> 62.1 µM,20.4 µM,77.8 µM,44.5 µM,> 100 µM,38 µM,11.7 µM,26.7 µM,0.51 µM,13.9 µM,39.2 µM,> 100 µM,27 µM,> 95.5 µM,4.31 µM,20.9 µM,26.6 µM,> 100 µM,11.2 µM,11.5 µM
COC(=O)CNC(=O)C(=O)c1c(O)c(O)c(C(C)C)c2cc(C)c(-c3c(C)cc4c(C(C)C)c(O)c(O)c(C(=O)C(=O)NCC(=O)OC)c4c3O)c(O)c12,6.37 µM,5.09 µM,40.9 µM,1.99 µM,7.91 µM,7.76 µM,2.65 µM,11.8 µM,1.29 µM,4.58 µM,1.97 µM,8.13 µM,1.79 µM,6.04 µM,1.61 µM,8.5 µM,1.42 µM,5.54 µM,1.53 µM,1.32 µM
CCCC(=O)Oc1ccc(/C(=C(\C)c2ccc(Cl)cc2)c2ccc(OCCN(CC)CC)cc2)cc1,15.6 µM,1.39 µM,4.88 µM,3.46 µM,12.4 µM,6.92 µM,4.85 µM,18.9 µM,4.16 µM,19.4 µM,4.55 µM,18.1 µM,1.55 µM,3.21 µM,12.8 µM,30.2 µM,3.39 µM,11.9 µM,3.69 µM,1.98 µM
CN(C)S(=O)(=O)c1cccc(C(=O)Nc2nc(-c3ccc(F)c(F)c3)cs2)c1,> 100 µM,3.77 µM,> 100 µM,25.9 µM,> 100 µM,> 100 µM,3.88 µM,> 27.4 µM,4.62 µM,> 84.1 µM,25.9 µM,> 100 µM,7.62 µM,> 100 µM,4.96 µM,> 60.8 µM,10.5 µM,> 100 µM,10.3 µM,6.17 µM
COc1ccc([N+](=O)[O-])c2c(NCCCN(C)C)c(C)c(C)nc12,> 100 µM,–,> 100 µM,–,> 100 µM,56.6 µM,–,> 100 µM,–,63.5 µM,–,> 100 µM,–,> 100 µM,–,> 100 µM,–,> 100 µM,–,–
N#CC1=C(N)NC(=O)C(C#N)C12Nc1ccccc1S2 (stereo not drawn),> 100 µM,> 100 µM,> 100 µM,> 100 µM,> 100 µM,> 100 µM,69.9 µM,> 100 µM,> 100 µM,> 100 µM,> 100 µM,> 100 µM,59.4 µM,> 100 µM,> 100 µM,> 100 µM,> 100 µM,> 100 µM,41.2 µM,52.4 µM
CCN(Cc1cc(Cl)cc(C)c1O)Cc1c(O)ccc2ccccc12,32.1 µM,–,35.8 µM,–,34.7 µM,52.5 µM,–,27.4 µM,–,31.6 µM,–,37 µM,–,33.1 µM,–,24.1 µM,–,31.5 µM,–,–
C=C1C(=O)OC2CC1C(OC(=O)/C=C/c1ccccc1)C/C(C)=C/CC/C(C)=C/CCC2(C)O (stereo not drawn),4.91 µM,–,18.4 µM,–,2.77 µM,> 21.6 µM,–,2.8 µM,–,2.96 µM,–,3.04 µM,–,2.38 µM,–,2.87 µM,–,3.08 µM,–,–
Nc1c(C(=O)c2cccc(-c3cccnc3)c2)cnn1-c1ccc(F)cc1,> 25 µM,> 25 µM,> 25 µM,> 25 µM,> 25 µM,> 25 µM,> 13.2 µM,> 25 µM,> 16.3 µM,> 25 µM,> 25 µM,> 25 µM,> 25 µM,> 25 µM,> 12.6 µM,> 25 µM,> 25 µM,> 25 µM,> 25 µM,> 25 µM
O=C(O)CCC(O)=C1S(=O)(=O)OCCOS1(=O)=O,> 100 µM,–,> 100 µM,–,> 100 µM,> 100 µM,–,> 100 µM,–,> 100 µM,–,> 100 µM,–,> 100 µM,–,> 100 µM,–,> 100 µM,–,–
COc1ccc2c(=O)c(-c3cc(OC)c(OC)cc3OC)coc2c1,> 100 µM,–,> 100 µM,–,> 100 µM,> 100 µM,–,> 100 µM,–,> 100 µM,–,> 100 µM,–,> 100 µM,–,8.93 µM,–,> 100 µM,–,–
